In assay [1] the target is T1, P2X7 (Homo sapiens, UniProt Q99572).
T1 sequence (Q99572 1-595): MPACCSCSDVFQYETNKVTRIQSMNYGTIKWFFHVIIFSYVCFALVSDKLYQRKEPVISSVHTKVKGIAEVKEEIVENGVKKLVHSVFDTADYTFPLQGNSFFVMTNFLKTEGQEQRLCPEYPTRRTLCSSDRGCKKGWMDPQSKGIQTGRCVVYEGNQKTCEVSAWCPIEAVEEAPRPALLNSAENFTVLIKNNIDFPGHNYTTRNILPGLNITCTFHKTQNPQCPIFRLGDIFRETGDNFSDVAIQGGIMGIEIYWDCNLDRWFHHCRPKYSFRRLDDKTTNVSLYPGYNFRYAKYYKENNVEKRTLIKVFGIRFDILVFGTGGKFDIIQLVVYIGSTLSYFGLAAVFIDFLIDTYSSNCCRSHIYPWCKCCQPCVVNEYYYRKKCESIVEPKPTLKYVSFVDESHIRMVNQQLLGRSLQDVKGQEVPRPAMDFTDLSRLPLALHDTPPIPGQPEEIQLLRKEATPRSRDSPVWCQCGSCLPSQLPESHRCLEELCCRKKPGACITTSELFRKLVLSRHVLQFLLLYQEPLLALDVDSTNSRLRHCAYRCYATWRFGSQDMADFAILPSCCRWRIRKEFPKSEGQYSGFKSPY
The assay is described as follows: Pore permeation assay (YO PRO dye uptake, BzATP-induced). The assay is classed as cell-based. Also noted: expressed in transfected cells; host or cells: HEK293. As to conditions: HEK293 transfected with human P2X7 receptor; YO PRO dye 1 uM, BzATP 10 uM; read-out: hP2X7 IC50. Here is the method:
Agonist-induced pore formation was determined by measuring cellular uptake of YO PRO fluorescence dye in HEK293 transfected with human P2X7 receptor. A HEK293 cell over expressing human P2X7 was harvested using HQTase reagent to detach the cells from T75 cm flask. The harvested cells are centrifuged @ 1200 rpm for 5 min at room temperature. The viability of cells was determined by Trypan blue dye and the cells are plated @ 10,000 cell/well in 50 ul volume in a 384 W BD Poly lysine coated plate and incubated overnight at 37 C. After overnight incubation, the culture medium was replaced with 35 ul/well assay buffer (5 mM KCl, 0.1 mM CaCl2, 5 mM Glucose, 10 mM HEPES buffer pH7.4 containing 125 mM NaCl. The serial dilution of compounds was performed using Bravo liquid handling instrument and the compounds were added using Bravo to the cell assay plate starting at 2.5 uM with three dilutions for 10 points. The positive control inhibitor compound was added to column 23. The plate was shaken slowly on a plate shaker for 10 seconds. The cells were incubated with the compound for 20 minutes at room temperature. After the incubation period, YO PRO dye (1 uM) along with BzATP (10 uM) were added to cells at 10 ul/well. The plate was centrifuged at 1000 rpm for 5 seconds and incubated at room temperature for 30 minutes. The uptake of YO PRO dye into the cells was measured using Envision Fluorescence plate reader instrument (Perkin Elmer).

Assay [2] addresses T1, P2X7. Briefly: IL-1β release assay in THP-1 cells (sandwich ELISA). It counts as cell-based. Also noted: release of mature IL-1β in the culture medium of THP-1 cells; endogenous in cells; host or cells: THP-1 cells (PMA-differentiated, LPS-primed). As to conditions: PMA, LPS primed, stimulated with 0.8 mM BzATP, mature IL-1β release, read-out: hTHP-1/IL-ib IC50. On the procedure:
The activation of P2X7 by ATP leads to a fast transient activation of cells resulting in influx of Ca^2+ followed by conversion of pro-IL-1β to active IL-1β. The functional activity of P2X7 compounds was measured by the release of mature IL-1β in the culture medium of THP-1 cells, detected by sandwich ELISA. Cells were maintained in complete growth medium (RPMI 1640+10% HI-FCS+2 mM L-glutamine+1×PS). […] THP-1 cells were harvested from the flask in 50 ml by centrifugation for 3 min at 100 g. The cells were resuspended to 2×10^5 cells/ml in medium supplemented with 0.5 μM PMA and incubated. The cells were washed and resuspended to 1.5×10^5 cells/ml in medium complemented with 10 ng/ml LPS, and the cells were primed for 4 h at 37° C., 5% CO2. After addition of 20 μL of prediluted test compounds, blank, standard and control reagents, cells were incubated for a further 20 min at 37° C. and stimulated with 0.8 mM BzATP for 30 minutes. The cells were centrifuged, supernatant was collected and the presence of mature IL-1β was detected using Dual human IL-1b kit following manufacturer's instruction. The tetrahydrobenzodiazepine analogs effectively modulated the activity of P2X7 in the cells as measured by the levels of pro-inflammatory cytokine IL-1β, which is released by the activation of P2X7 receptor.

A value given as a limit tells only on which side of the number the result lay.

Consider `O=C(NCC1CCC(F)(F)CC1)c1c(Cl)ccc2ncccc12` [Compound 78], for which the IC50 fell in the range of 101 to 500 nM in assay [1] and 10 to 100 nM in assay [2]. Turning to `NC1CCN(c2ccc3c(C(=O)NCC4(O)CCCC(F)(F)C4)c(Cl)ccc3n2)C1` (centres unmarked) [Compound 32, 2-(3-Aminopyrrolidin-1-yl)-6-chloro-quinoline-5-carboxylic acid (3,3-difluoro-1-hydroxycyclohexylmethyl)-amide], the IC50 in assay [1] and in assay [2] was 10 to 100 nM throughout. Turning to `COCCCNc1ccc2c(C(=O)NCC3CCC(F)(F)CC3)c(Cl)ccc2n1` [Compound 77, 6-Chloro-2-(3-methoxy-propylamino)-quinoline-5-carboxylic acid (4,4-difluoro-cyclohexyl methyl)-amide], in assay [1], the IC50 fell in the range of 101 to 500 nM. Turning to `O=C(NCC1CCC(F)(F)CC1)c1c(Cl)ccc2nc(N3CCC(F)(F)C3)ccc12` [Compound 58], the IC50 in assay [1] lay in the range of 10 to 100 nM; in assay [2], 101 to 500 nM.

As for `O=C(NCC1CCC(F)(F)CC1)c1c(Cl)ccc2nc(N3CCC(CO)C3)ccc12` (centres unmarked) [Compound 45], the IC50 in assay [1] and in assay [2] was 10 to 100 nM throughout.

For `CNC1CCN(c2ccc3c(C(=O)NCC4CCC(F)(F)CC4)c(Cl)ccc3n2)C1` (centres unmarked) [Compound 17, 6-Chloro-2-(3-methylamino-pyrrolidin-1-yl)-quinoline-5-carboxylic acid (4,4-difluoro-cyclohexylmethyl)-amide], the IC50 in assay [1] is less than 10 nM; in assay [2], 10 to 100 nM. On the same counts, the results for `C[C@@H]1CCC[C@](O)(CNC(=O)c2c(Cl)ccc3nc(N4CC[C@H](N(C)C)C4)ccc23)C1` [Compound 4, 6-Chloro-2-((S)-3-dimethylamino-pyrrolidin-1-yl)-quinoline-5-carboxylic acid ((1R,3R)-1-hydroxy-3-methyl-cyclohexylmethyl)-amide] are less than 10 nM and less than 10 nM.

`O=C(NCC1CCC(F)(F)CC1)c1c(Cl)ccc2nc(C3CCCC3)ccc12` [Compound 43, 6-Chloro-2-cyclopentyl-quinoline-5-carboxylic acid (4,4-difluoro-cyclohexylmethyl)-amide]: the IC50 in assay [1] is 10 to 100 nM. Take `CN(C)[C@@H]1CCN(c2ccc3c(C(=O)NCC4(O)CCC(F)(F)CC4)c(Cl)ccc3n2)C1` [Compound 23, 6-Chloro-2-((R)-3-dimethylamino-pyrrolidin-1-yl)-quinoline-5-carboxylic acid (4,4-difluoro-1-hydroxy-cyclohexylmethyl)-amide]: the IC50 in assay [1] and in assay [2] was 10 to 100 nM throughout. Consider `C[C@@H]1CCC[C@](O)(CNC(=O)c2c(Cl)ccc3nc(N4CC[C@@H](F)C4)ccc23)C1` [Compound 8, 6-Chloro-2-(3-(R)-fluoropyrrolidin-1-yl)-quinoline-5-carboxylic acid ((1R,3R)-1-hydroxy-3-methyl-cyclohexylmethyl)-amide], for which the values for the IC50 in assay [1] and in assay [2] were less than 10 nM and 10 to 100 nM, respectively. Regarding `CCOC(=O)CCNc1ccc2c(C(=O)NCC3CCC(F)(F)CC3)c(Cl)ccc2n1` [Compound 81, 3-{6-Chloro-5-[(4,4-difluoro-cyclohexylmethyl)-carbamoyl]-quinolin-2-ylamino}-propionic acid ethyl ester], the IC50 in assay [1] is 101 to 500 nM. Still for that read-out and setting: the figure for `C[C@@H]1CCC[C@](O)(CNC(=O)c2c(Cl)ccc3nc(C4CCCC4)ccc23)C1` [Compound 15, 6-Chloro-2-cyclopentyl-quinoline-5-carboxylic acid ((1R,3R)-1-hydroxy-3-methyl-cyclohexylmethyl)-amide] is less than 10 nM.

`O=C(NCC1CCC(F)(F)CC1)c1c(Cl)ccc2nc(N3CCC(O)C3)ccc12` (centres unmarked) [Compound 57, 6-Chloro-2-(3-hydroxy-pyrrolidin-1-yl)-quinoline-5-carboxylic acid (4,4-difluoro-cyclo hexylmethyl)-amide]: the IC50 in assay [1] lay within 10 to 100 nM. Same read-out and setting: the figure for `C[C@@H]1CCC[C@](O)(CNC(=O)c2c(Cl)ccc3nc(N4CCCC4)ccc23)C1` [Compound 16, 6-Chloro-2-pyrrolidin-1-yl-quinoline-5-carboxylic acid ((1R,3R)-1-hydroxy-3-methyl-cyclohexylmethyl)-amide] is less than 10 nM; for `C[C@@H]1CCC[C@](O)(CNC(=O)c2c(Cl)ccc3nc(N4CC[C@@H](N(C)C)C4)ccc23)C1` [Compound 22, 6-Chloro-2-((R)-3-dimethylamino-pyrrolidin-1-yl)-quinoline-5-carboxylic acid ((1R,3R)-1-hydroxy-3-methyl-cyclohexylmethyl)-amide] it is 10 to 100 nM; for `C[C@H]1CCC[C@@](O)(CNC(=O)c2c(Cl)ccc3nc(N4CCCC4)ccc23)C1` [Compound 2, 6-Chloro-2-pyrrolidin-1-yl-quinoline-5-carboxylic acid ((1S,3S)-1-hydroxy-3-methyl-cyclohexylmethyl)-amide] it is less than 10 nM.

With `CC1CCCC(O)(CNC(=O)c2c(Cl)ccc3nc(N4CC[C@@H](N(C)C)C4)ccc23)C1` (some centres unmarked) [Compound 14], the IC50 in assay [1] was less than 10 nM.

As to `CN(C)C(=O)CCNc1ccc2c(C(=O)NCC3CCC(F)(F)CC3)c(Cl)ccc2n1` [Compound 82, 6-Chloro-2-(2-dimethylcarbamoyl-ethylamino)-quinoline-5-carboxylic acid (4,4-difluoro-cyclo hexyl methyl)-amide], the IC50 in assay [1] lay within 101 to 500 nM.

Consider `O=C1C=C(c2ccc3c(C(=O)NCC4CCC(F)(F)CC4)c(Cl)ccc3n2)CC1` [Compound 72], for which, in assay [1], the IC50 was in the range of 10 to 100 nM. Same read-out and setting: the figure for `O=C(NCC1CCC(F)(F)CC1)c1c(Cl)ccc2nc(N3CCCC(C(=O)O)C3)ccc12` (centres unmarked) [Compound 79, 1-{6-Chloro-5-[(4,4-difluoro-cyclohexylmethyl)-carbamoyl]-quinolin-2-yl}-piperidine-3-carboxylic acid] is 101 to 500 nM. On the same count and under the same terms, the figure for `CC(C)(C)OC(=O)N1CCC(c2ccc3c(C(=O)NCC4CCC(F)(F)CC4)c(Cl)ccc3n2)CC1` [Compound 71, 4-{6-Chloro-5-[(4,4-difluoro-cyclohexylmethyl)-carbamoyl]-quinolin-2-yl}-piperidine-1-carboxylic acid tert-butyl ester] is 10 to 100 nM. On to `O=C(NCC1CCC(F)(F)CC1)c1c(Cl)ccc2nc(C3CCNCC3)ccc12` [Compound 53, 6-Chloro-2-piperidin-4-yl-quinoline-5-carboxylic acid (4,4-difluorocyclohexylmethyl)-amide], for which, in assay [1], the IC50 lay in the range of 10 to 100 nM. Same read-out and setting: the figure for `C[C@H]1CCC[C@@](O)(CNC(=O)c2c(Cl)ccc3nc(C4CCCC4)ccc23)C1` [Compound 7, 6-Chloro-2-cyclopentyl-quinoline-5-carboxylic acid ((1S,3S)-1-hydroxy-3-methyl-cyclohexylmethyl)-amide] is less than 10 nM; for `O=C(O)CCNc1ccc2c(C(=O)NCC3CCC(F)(F)CC3)c(Cl)ccc2n1` [Compound 83, 3-{6-Chloro-5-[(4,4-difluorocyclohexylmethyl)-carbamoyl]-quinolin-2-ylamino}-propionic acid] it is more than 1000 nM.

Source of the values: patent publication US9399623B2, “Quinoline derivatives and their use in neurodegenerative diseases” (Merck Patent GmbH, priority 2014, dated 2016).
